Experimental findings from patent EP0624315B1, “Diaryl(pyridinio and isoquinolinio) boron fungicidal agents” (AMERICAN CYANAMID COMPANY, priority 1993, dated 1994) are described below.

For assay [1], the system named is Puccinia recondita f. sp. tritici. The assay is described as follows: In vivo fungicidal evaluation, Wheat Leaf Rust. Further: ranges in brackets are in %. The following applies: 200 ppm, host plants sprayed, dried, then inoculated.
For assay [2], the system named is Tetranychus urticae (OP-resistant strain), 2-spotted spider mite. Description: Acaricide evaluation, 2-spotted spider mite plant dip. In kind it is in vivo. As to conditions: 300 ppm, 2 days, adult kill. As for the experimental part:
(§1) The following tests show the efficacy of the compounds as insecticides and acaricides. The evaluations are conducted with solutions of test compounds dissolved or dispersed in 50/50 acetone/water mixtures. The test compound is technical material dissolved or dispersed in said acetone/water mixtures in sufficient amounts to provide the concentrations set forth in Table I below. All concentrations reported herein are in terms of active ingredient. All tests are conducted in a laboratory maintained at about 27 °C. The rating system employed is as follows:
Sieva lima bean plants with primary leaves expaned to 7 to 8 cm are selected and cut back to one plant per pot. A small piece is cut from a leaf taken from the main colony and placed on each leaf of the test plants. This is done about 2 hours before treatment to allow the mites to move over to the test plant and to lay eggs. The size of the cut piece is varied to obtain about 100 mites per leaf. At the time of the treatment, the piece of leaf used to transfer the mites is removed and discarded. The mite-infested plants are dipped in the test formulation for 3 seconds with agitation and set in the hood to dry. Plants are kept for 2 days before estimates of adult kill are made.

Assay [3] deals with Cercospora beticola. The assay is described as follows: In vivo fungicidal evaluation, Sugar Beet Cercospora. Further: ranges in brackets are in %. As to conditions: 200 ppm, host plants sprayed, dried, then inoculated.
For assay [4], the system named is Venturia inaequalis. Description: In vivo fungicidal evaluation, Apple Scab. Further: ranges in brackets are in %. As to conditions: 200 ppm, host plants sprayed, dried, then inoculated.
In assay [5] the test system is Pyricularia oryzae. In kind it is in vivo. As to conditions: 200 ppm, host plants sprayed, dried, then inoculated.
The test system of assay [6] is Erysiphe graminis f. sp. tritici. The assay is described as follows: In vivo fungicidal evaluation, Wheat Powdery Mildew. Further: ranges in brackets are in %. The following applies: 200 ppm, host plants sprayed, dried, then inoculated.
The subject of assay [7] is Spodoptera eridania 3rd instar larvae, southern army-worm. Description: Insecticide evaluation, southern armyworm leaf dip. Type of assay: in vivo. As to conditions: 1000 ppm, 5 days. As for the experimental part: as §1
A sieva lima bean leaf expanded to 7 to 8 cm in length is dipped in the test suspension with agitation for 3 seconds and placed in a hood to dry. The leaf is then placed in a 100x10 mm petri dish containing a damp filter paper on the bottom and 10 3rd instar caterpillars. The dish is maintained for 5 days before observations are made of mortality, reduced feeding or any interference with normal moulting.

Assay [8] deals with Pythium ultimum (Pythul). Description: In vitro fungicidal evaluation, mycelial growth inhibition in nutrient broth. Further: ranges in brackets are in %. Type of assay: cell-based. As to conditions: 25 ppm, 3-4 days at 21°C, rated visually. As for the experimental part:
(§2) Test compounds are dissolved or suspended in acetone and dispersed into cell well plates containing a suspension of ground fungal mycelia in a nutrient broth. Assay plates are incubated for 3-4 days at 21°C. Growth inhibition is measured visually and is rated using the following scale:
(§3) Untreated controls, solvent blanks and reference standards are included in each test.
(§4) Assay fungi include the plant pathogens, Pythium ultimum (Pythul); Rhizoctonia solani (Rhizso); Fusarium oxysporum f. sp. cucumerinum (Fusoxc); and Pseudocercosporella herpotrichoides (Psdche).
(§5) When more than one test is run, the data are averaged. The compouds evaluated are reported by compound number given in Example 5.

Assay [9] deals with Fusarium oxysporum f. sp. cucumerinum (Fusoxc). The description is as above. In kind it is cell-based. The following applies: 25 ppm, 3-4 days at 21°C, rated visually. As for the experimental part:
as §2, §3, §4, §5

For assay [10], the system named is Rhizoctonia solani (Rhizso). The assay is described as above. In kind it is cell-based. As to conditions: 25 ppm, 3-4 days at 21°C, rated visually. As for the experimental part: as §2, §3, §4, §5; further: ranges in brackets are in %
Assay [11] deals with Pseudocercosporella herpotrichoides (Psdche). Described as above. In kind it is cell-based. The following applies: 25 ppm, 3-4 days at 21°C, rated visually. As for the experimental part: as §2, §3, §4, §5
Assay [12] deals with Botrytis cinerea. The assay is described as follows: In vivo fungicidal evaluation, Pepper Botrytis. Further: ranges in brackets are in %. As to conditions: 200 ppm, host plants sprayed, dried, then inoculated.
In assay [13] the test system is Plasmopara viticola. The assay is described as follows: In vivo fungicidal evaluation, Grape Downy Mildew. Further: ranges in brackets are in %. As to conditions: 200 ppm, host plants sprayed, dried, then inoculated.
Assay [14] has as its system Alternaria solani. The assay is described as follows: In vivo fungicidal evaluation, Tomato Early Blight. Further: ranges in brackets are in %. As to conditions: 200 ppm, host plants sprayed, dried, then inoculated.
The test system of assay [15] is Diabrotica undecimpunctata howardi, 3rd instar southern corn rootworm. The assay is described as follows: Insecticide evaluation, southern corn rootworm soil test. The following applies: 50 kg/ha (1.25 mg active ingredient per jar), 6 days. Details: key: 0 = no effect; 1 = 10-25% kill; 2 = 26-35% kill; 3 = 36-45% kill; 4 = 46-55% kill; 5 = 56-65% kill; 6 = 66-75% kill; 7 = 76-85% kill; 8 = 86-99% kill; 9 = 100% kill; - = No evaluation. Type of assay: in vivo. As for the experimental part: as §1
One cc of fine talc is placed in a 30 mL wide-mouth screw-top glass jar. One mL of the appropriate acetone test solution is pipetted onto the talc so as to provide 1.25 mg of active ingredient per jar. The jars are set under a gentle air flow until the acetone is evaporated. The dried talc is loosened, 1 cc of millet seed is added to serve as food for the insects and 25 mL of moist soil is added to each jar. The jars are capped and the contents thoroughly mixed on a Vortex Mixer. Following this, ten 3rd instar rootworms are added to each jar and the jars are loosely capped to allow air exchange for the larvae. The treatments are held for 6 days before mortality counts are made. Missing larvae are presumed dead, since they decompose rapidly and can not be found. The concentration used in this test corresponds to approximately 50 kg/ha.
Wherever FUSOXC growth inhibition rating is given: ranges in brackets are in %.
Wherever PSDCHE growth inhibition rating is given: ranges in brackets are in %.

On to “(3-Ethyl-4-methylpyridinio)methyldiphenylboron [Compound 5]”, for which the “WLR (Wheat Leaf Rust) disease control rating” value (shortened to “WLR”) in assay [1] was 8 (96 - 99). Besides, in assay [2], the “OP. Res. Mites kill rating” value is given as 8 (8 = 86-99% kill). Moreover, in assay [3], the “SBC (Sugar Beet Cercospora) disease control rating” value (“SBC” for short) is recorded as 0 (0). Further, in assay [4], the “AS (Apple Scab) disease control rating” value is recorded as 0 (0). Besides, the “RB (Rice Blast) disease control rating” value in [5] is on record as 0 (0). Besides, in assay [6], the “WPM (Wheat Powdery Mildew) disease control rating” value (from here on “WPM”) is 9 (100). The “Southern Armyworm kill rating” value in assay [7] is on record as 9 (9 = 100% kill). Also, in [8], the “PHTHUL growth inhibition rating” value is listed as 9 (100). Further, the “FUSOXC growth inhibition rating” value in assay [9] is reported as 9 (100). For the same compound, in assay [10], the “RHIZSO growth inhibition rating” value is listed as 9 (100). Besides, the “PSDCHE growth inhibition rating” value in assay [11] was 9 (100). For the same compound, the “PB (Pepper Botrytis) disease control rating” value (“PB” for short) in [12] is 0 (0). Also, in assay [13], the “GDM (Grape Downy Mildew) disease control rating” value (shortened to “GDM”) is on record as 9 (100). The “TEB (Tomato Early Blight) disease control rating” value (“TEB” below) in [14] is given as 8 (96 - 99). Moreover, in [15], the “Southern Corn Rootworm kill rating” value is on record as 9 (9 = 100% kill).
With “(4-Bromoisoquinolinio)bis(p-fluorophenyl)methylboron [Compound 14]”, the “WLR” value in assay [1] is on record as 0 (0). Moreover, the “OP. Res. Mites kill rating” value in [2] is 9 (9 = 100% kill). Besides, the “SBC” value in assay [3] is listed as 7 (90 - 95). In [4], the “AS (Apple Scab) disease control rating” value is recorded as 8 (96 - 99). Besides, the “RB (Rice Blast) disease control rating” value in assay [5] was 8 (96 - 99). The “WPM” value in [6] was 0 (0). In [7], the “Southern Armyworm kill rating” value is 9 (9 = 100% kill). Further, the “PHTHUL growth inhibition rating” value in assay [8] is 9 (100). The “FUSOXC growth inhibition rating” value in assay [9] is listed as 9 (100). In addition, the “RHIZSO growth inhibition rating” value in [10] is 9 (100). Besides, the “PSDCHE growth inhibition rating” value in assay [11] is reported as 9 (100). Moreover, in [12], the “PB” value is recorded as 9 (100). In addition, the “GDM” value in [13] is 7 (90 - 95). Also, the “TEB” value in [14] is listed as 0 (0). Also, in assay [15], the “Southern Corn Rootworm kill rating” value is recorded as 5 (5 = 56-65% kill).
For the compound `C[B-](c1ccccc1)(c1ccccc1)[n+]1cccc(Br)c1` [Compound 18, (3-Bromopyridinio)methyldiphenylboron], the “WLR” value in [1] is 0 (0). In addition, the “OP. Res. Mites kill rating” value in [2] was 7 (7 = 76-85% kill). In addition, the “SBC” value in assay [3] is 6 (75 - 89). Also, in assay [4], the “AS (Apple Scab) disease control rating” value is 0 (0). Further, the “RB (Rice Blast) disease control rating” value in assay [5] is 5 (60 - 74). Further, the “WPM” value in [6] is listed as 0 (0). Besides, in assay [7], the “Southern Armyworm kill rating” value was 9 (9 = 100% kill). Moreover, the “PHTHUL growth inhibition rating” value in assay [8] is given as 7 (90 - 99). Also, in [9], the “FUSOXC growth inhibition rating” value was 7 (90 - 99). In addition, the “RHIZSO growth inhibition rating” value in assay [10] is on record as 7 (90 - 99). In addition, the “PSDCHE growth inhibition rating” value in assay [11] was 9 (100). The “PB” value in assay [12] was 8 (96 - 99). For the same compound, the “GDM” value in assay [13] is recorded as 4 (45 - 59). Further, the “TEB” value in [14] is on record as 4 (45 - 59). Further, in assay [15], the “Southern Corn Rootworm kill rating” value came out at 0.
“Methyl(3-methylpyridinio)diphenylboron [Compound 2]”: the “WLR” value in assay [1] is 8 (96 - 99). The “OP. Res. Mites kill rating” value in assay [2] is 9 (9 = 100% kill). In addition, in assay [3], the “SBC” value was 0 (0). In addition, the “AS (Apple Scab) disease control rating” value in assay [4] is 9 (100). Further, the “RB (Rice Blast) disease control rating” value in assay [5] is 7 (90 - 95). The “WPM” value in [6] was 8 (96 - 99). In addition, the “Southern Armyworm kill rating” value in [7] is 9 (9 = 100% kill). The “PHTHUL growth inhibition rating” value in assay [8] is given as 9 (100). For the same compound, the “FUSOXC growth inhibition rating” value in assay [9] is on record as 9 (100). The “RHIZSO growth inhibition rating” value in assay [10] is given as 9 (100). The “PSDCHE growth inhibition rating” value in assay [11] is reported as 9 (100). Moreover, in assay [12], the “PB” value was 0 (0). Further, the “GDM” value in assay [13] is given as 9 (100). Besides, the “TEB” value in assay [14] is 0 (0). For the same compound, in assay [15], the “Southern Corn Rootworm kill rating” value was 9 (9 = 100% kill).
